Assay results taken from patent US11993563B2, “Solid compositions of cocrystals of cannabinoids” (priority 2018, dated 2024).

How the values were obtained:
[1] = Stability of the cocrystal on heating (DSC experiments); type: physicochemical
Protocol: The cocrystal Form VII of the present invention may also be further characterized by DSC (differential scanning calorimetry) analysis as shown in FIG. 15. […] The cocrystal Form VII of the present invention may also be further characterized by having a melting range of about 109-120° C.
The cocrystal Form XVIII of the present invention may also be further characterized by DSC (differential scanning calorimetry) analysis as shown in FIG. 35.
The cocrystal Form XIX of the present invention may also be further characterized by DSC (differential scanning calorimetry) analysis as shown in FIG. 37.
DSC analyses were recorded with a Mettler Toledo DSC2. For cocrystals Forms […], and XI-XIX, the sample was weighed into a 40 μL aluminium crucible with a pinhole lid and was heated from 25 to 300° C. at a rate of 10° C./min, under nitrogen (50 mL/min). For cocrystals Form VII and VIII, the sample was weighed into a 40 μL aluminium crucible with a pinhole lid and was heated from 25 to 150° C. at a rate of 10° C./min, under nitrogen (50 mL/min).

[2] = in tablet
Protocol: (§1) X-ray power Diffraction (XRPD) measurements were performed at ambient conditions on a PANalytical X'Pert PRO θ-θ diffractometer of 240 mm of radius in reflection geometry, equipped with Cu Kα radiation and a PIXcel detector, operated at 45 kV and 40 mA. Each sample was mounted on a zero-background silicon holder and allowed to spin at 0.25 rev/s during the data collection.

[3] = open vial, accelerated stability conditions 40° C. and 75±5% relative humidity
Protocol: as §1
The aim of the study is to evaluate the stability of cocrystal Form I of the present invention.
Cocrystal Form I (55 mg) is stored in an open vial and exposed to accelerated stability conditions (40° C. and 75±5% relative humidity) according to ICH guidelines (Guidance for Industry Q1A(R2) Stability Testing of New Drug Substances and Products—available on the website http://www.ich.org/products/guidelines/quality/quality-single/article/stability-testing-of-new-drug-substances-and-products.html on Aug. 4, 2017).

SMILES	remained stable after heating up to [1]	integrity of the cocrystal after its formulation (XRPD of the tablet) [2]	stability according to XRPD [3]
C=C(C)[C@@H]1CCC(C)=C[C@H]1c1c(O)cc(CCC)cc1O [Form XIX, cocrystal wherein the cannabinoid is CBDV and L-carnitine]	up to 110 °C	–	–
CCCCCc1cc(O)c2c(c1)OC(C)(C)[C@@H]1CCC(C)=C[C@@H]21 [Form VII, cocrystal of (−)-(6aR,10aR)-6,6,9-trimethyl-3-pentyl-6a,7,8,10a-tetrahydro-6H-benzo[c]chromen-I-ol and L-proline]	up to 75 °C	maintained its integrity	–
C=C(C)[C@@H]1CCC(C)=C[C@H]1c1c(O)cc(CCCCC)cc1O [Form I, cocrystal of CBD and L-proline]	–	maintained its integrity	remained stable for at least three weeks
C=C(C)[C@@H]1CCC(C)=C[C@H]1c1c(O)cc(CCC)cc1O [Form XVIII, cocrystal wherein the cannabinoid is CBDV and L-proline]	up to 90 °C	–	–
